In patent US20230337658A1, “COMPOSITIONS AND METHODS FOR ENHANCING SPERM CELL QUALITY” (ABS Global, Inc., priority 2022, published 2023):
Where a name gives a salt, the structure may show the parent alone.

Assays:
[1] = tested on: slaughterhouse oocytes fertilized with sexed semen; assay: In vitro fertilization (IVF) with sexed semen: embryo cleavage and blastocyst formation; format: cell-based, bovine
Excerpt: IVF Testable Unit Generation Design: This study utilizes sires from two breeds, Holstein and Jersey. The study design includes one ejaculate collection from 10 unique sires to generate sexed semen units in a split batch design with clofilium and a paired control.
Final breed tally of the collections were 7 Holsteins and 3 Jersey sires. Ejaculates selected for use in this trial were processed following standard production procedures outlined in detail below. Insemination doses, freeze canes, and all associated documentation were blind labeled during the incoming quality check. This was to prevent technician bias on quality control assessments after freeze-thaw as well as during the IVF outcome quantitation assessments.
After processing, the sexed semen was packaged and frozen during a regularly scheduled production freeze following standard operating procedures (SOPs). Within one week of unit generation, the outgoing quality control measurements were performed by a trained research technician. Post-thaw motile concentration and the presence/absence of bacterial contamination were completed. Insemination doses had to pass standard production outgoing quality control parameters to be utilized for the IVF trial.
Each facility received the two treatment groups for each individual ejaculate. The two treatments from each split ejaculate were used concurrently to fertilize oocytes from the same pooled batch of slaughterhouse oocytes.
Trained IVF technicians performed the outlined fertilizations. Day 2 cleavage rate, Day 7 and 8 blastocyst rates will be recorded, as well as polyspermy post-fertilization.
Oocyte prep: Four well fertilization plates are prepared by filling all 4 wells with 400 μL of BO-IVF (MOFA Verona, Wis.) and equilibrated in a 37° C. 5% CO2 for at least 1 hour. […]
Semen prep: Three insemination straws per treatment group are thawed at 37° C. for 45 seconds. […] A 5 μL sample aliquot is added to 95 μLs 4% NaCl to immobilize the cells, and cell concentration is quantified using a hemocytometer. Cells with visible membrane damage are not counted towards cell density calculations. […]

sperm cells [2] = assay: Sexing cytometer metrics: eligible cells, skew; format: cell-based, bovine; conditions: 5 μM, n=10 sires
Method: (§1) Sample Preparation for Sperm Sexing: A stained sample was prepared at room temperature that contained 200 M/mL sperm cells in 0.06 mg/mL Hoechst 33342 diluted to final volume in Stain TALP with Magnetic Beads with (+clofilium) or without (control) such that clofilium would be at a final concentration of 5 μM in the final stained sample volume. The sample was then incubated in a 37° C. water bath for 45 minutes. After 45 minutes Red Stain TALP was added to the stained sample in a 2:1 v/v ratio. The sample+Red TALP was then thoroughly mixed using inversion, filtered using tube top 20 μm Partec filters (Partec#04-0042-2315), and aliquoted into round bottom 5 mL tubes.
Sexing Cytometer Metrics: The stained, filtered sample was then run on proprietary sexing cytometers. The sample throughput was adjusted to 23,000 cells/sec and the detection and kill lasers were focused. To confirm proper laser focus, kill count assessments were performed before collecting sex skewed sample. A successful kill count has a population that is ≥75% dead and ≥95% sliced with at least 200 cells being counted. […] After a successful kill count, a gate was placed to collect the X chromosome cells, which is the cell population with the brighter Hoechst 33342 fluorescence as measured with a 355 nm wavelength excitation laser. […]

sperm cells [3] = assay: Pre-freeze and post-freeze motile cell quantification (CASA); format: cell-based, bovine; conditions: 5 μM, n=10 sires, compared to SOP
Method: Sex Skewed Sample Collection and Processing: The sample was run to collect between 300 and 400 mL of sex skewed sample, the composition of which is approximately 17% TRIS A (Part 1) buffer, 80% sheath fluid, and 2% cell sample. The sample was collected in 50 mL conical tubes containing 5 mLs of TRIS A (Part 1), and each tube was filled to a max volume of 30 mL before being replaced. After the requisite total volume was collected, sexed sperm was centrifuged at room temperature at 2400×g for 10 minutes. The supernatant was aspirated and discarded to reach a 1 mL pellet volume. 144 μL of TRIS A (Part 1)/GTLS mixture containing 40 μM clofilium or no clofilium (control) was added to each pellet after resuspension. The tubes were then placed in beakers filled with 150 mL of room temperature water, to prevent cold shock, and were then transferred to a 4° C. cold room. […] The concentration of progressively motile cells was determined using the Hamilton Thorne IVOS II with […] […] After which 20 μLs of sample is added to 20 μLs of QC diluent, gently vortexed for 5 seconds, and read on the CASA fluorescent settings described above. The remainder of the straw volume is spread on a blood agar plate and left at 37° C. for 24 hours before bacterial colonies are counted. […]

sexed semen samples = assay: Cellular function of sexed semen samples (mitochondrial membrane potential, motility); format: cell-based; conditions: sexed semen samples treated
sperm cells [4] = assay: Staining sperm cells with Hoechst dye before sexing; format: cell-based; conditions: present during staining with Hoechst dye
Method: as §1
Sexing Cytometer Metrics: The stained, filtered sample was then run on proprietary sexing cytometers. The sample throughput was adjusted to 23,000 cells/sec and the detection and kill lasers were focused. To confirm proper laser focus, kill count assessments were performed before collecting sex skewed sample. A successful kill count has a population that is ≥75% dead and ≥95% sliced with at least 200 cells being counted. If an instrument could not achieve the above metrics, the instrument was not used to collect sex skewed semen. After a successful kill count, a gate was placed to collect the X chromosome cells, which is the cell population with the brighter Hoechst 33342 fluorescence as measured with a 355 nm wavelength excitation laser. Cytometer performance metrics were collected 15 minutes after instrument set up, and 15 minutes after the placement of the last sample collection tube, including the height of the Y-peak, the height of the X-peak, the height of the trough from the histogram of events per emitted fluorescent intensity, gated %, and dead %.

CCCCCCC[N+](CC)(CC)CCCCc1ccc(Cl)cc1 [clofilium tosylate, N-[4-(4-chlorophenyl)butyl]-N,N-diethylheptan-1-aminium]
percentage of normalized cleaved embryos at day 2 ([1]; 5 μM throughout the sexing process, N=2 sires, normalized to the control process, FIG. 3A): improvement | percentage of day 7 blastocysts ([1]; 5 μM throughout the sexing process, N=2 sires, normalized to the control process, FIG. 3B): improvement | fertility of semen, as assessed by embryo cleavage and blastocyst formation post-IVF ([1]; included in the sexing process): improves fertility | Skew (percentage of X-chromosome bearing sperm cells) (sperm cells [2]): remains unaffected | percentage of eligible cells (live, sexed X chromosome bearing cells) (sperm cells [2]; compared to SOP at start and end of the collection process, FIG. 4): increased eligible percent | number of straws obtained from a single sample catch tube (pre-freeze motile cell quantification) (sperm cells [3]; post instrument processing, FIG. 5): improvement | motile cells (in millions) per insemination dose (sperm cells [3]; post-freeze, FIGS. 6A, 6B): more motile cells | cellular function, as measured by mitochondrial membrane potential (sexed semen samples): increased cellular function | cellular function, as measured by motility (sexed semen samples): increased cellular function | eligibility (number of cells eligible for sexing) (sperm cells [4]): increase eligibility | resolution (separation of X- and Y-chromosome cell peaks in a histogram) (sperm cells [4]): increase resolution | sex skew (sperm cells [4]): increase | time required to achieve staining saturation (sperm cells [4]): reduce the time
